Assay results from publication PMC3171608 (Bioorganic & medicinal chemistry, 2011).

Key:
[1] = tested on: other kinesin family members; settings: cited from earlier work
HeLa cells = experiment: Phenotypic assay in cultured HeLa cells; type: cell-based, human; settings: 1 μM compound
[2] = molecular target: mammalian centromere-associated kinesin (MCAK) (Homo sapiens, UniProt Q99661); experiment: Kinesin ATPase selectivity panel, MCAK; type: biochemical; settings: panel of mitotic kinesins; data not shown
Chain of mammalian centromere-associated kinesin (MCAK) (Q99661 258-588 limits assumed): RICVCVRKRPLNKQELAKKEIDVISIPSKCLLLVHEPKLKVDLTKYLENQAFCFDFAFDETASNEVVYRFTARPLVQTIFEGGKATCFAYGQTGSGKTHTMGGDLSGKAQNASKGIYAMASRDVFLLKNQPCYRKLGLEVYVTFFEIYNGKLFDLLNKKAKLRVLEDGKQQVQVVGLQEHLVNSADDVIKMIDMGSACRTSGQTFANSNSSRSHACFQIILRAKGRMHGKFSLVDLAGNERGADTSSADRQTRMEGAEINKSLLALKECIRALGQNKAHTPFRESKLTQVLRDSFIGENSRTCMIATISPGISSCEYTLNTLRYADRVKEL

[3] = molecular target: T1, centromeric protein E (CENP-E) (Homo sapiens, UniProt Q02224); experiment: Kinesin ATPase selectivity panel, CENP-E; type: biochemical; settings: panel of mitotic kinesins; data not shown
T1 sequence (Q02224 6-329 limits assumed): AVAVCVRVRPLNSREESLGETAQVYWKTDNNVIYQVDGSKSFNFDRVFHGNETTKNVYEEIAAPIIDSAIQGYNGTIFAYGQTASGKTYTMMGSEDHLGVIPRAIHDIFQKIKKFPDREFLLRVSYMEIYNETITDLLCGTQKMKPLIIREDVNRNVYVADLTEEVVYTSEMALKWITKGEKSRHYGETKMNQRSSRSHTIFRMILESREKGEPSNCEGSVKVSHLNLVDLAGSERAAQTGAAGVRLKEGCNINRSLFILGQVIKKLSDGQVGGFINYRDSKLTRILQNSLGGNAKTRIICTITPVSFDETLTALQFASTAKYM

chromokinesin = settings: panel of mitotic kinesins; data not shown
NCI60 tumor panel = NCI60 tumor panel growth inhibition; settings: for GI50: read-out: Average GI50 in leukemia and colon tumor cell lines
M14 = experiment: NCI60 growth inhibition, M14; type: cell-based; settings: melanoma M14, GI50

SMILES	Activity against other kinesin family members [1]	Interphase microtubule morphology (HeLa cells)	Inhibitory activity against MCAK [2]	Inhibitory activity against CENP-E [3]	Inhibitory activity against chromokinesin (chromokinesin)	GI50 (NCI60 tumor panel) [nM]	Fold increase in activity over monastrol (M14) [fold]	Average fold increase in potency over 1 (NCI60 tumor panel; NCI60 panel GI50) [fold]	Average fold increase in potency over Monastrol (NCI60 tumor panel; NCI60 panel GI50) [fold]
N[C@@H](CSC(c1ccccc1)(c1ccccc1)c1ccccc1)C(=O)O [Compound 1, S-trityl-L-cysteine]	no activity								
N[C@H](CO)CSC(c1ccccc1)(c1ccccc1)c1ccccc1 [Compound 4, (R)-2-amino-3-(tritylthio)propan-1-ol]		normal	no measurable inhibition detected	no measurable inhibition detected					
COc1ccc(C(SC[C@H](N)CO)(c2ccccc2)c2ccccc2)cc1 [Compound 5, (R)-2-amino-3-((4-methoxyphenyl)diphenylmethylthio)propan-1-ol]		normal	no measurable inhibition detected	no measurable inhibition detected	no measurable inhibition detected	≤ 230			
COc1ccc(C(SCCN)(c2ccccc2)c2ccccc2)cc1 [Compound 7]		normal				≤ 230	1200	~35	~143
